Measurements published in ChEMBL document CHEMBL1201861, “Genomics of Drug Sensitity in Cancer screening data, Wellcome Trust Sanger Institute”.

What was measured:
Assay in all cases: cells
Format in all cases: functional, cell-based
Details in all cases: Homo sapiens
HuP-T3 = system: HuP-T3;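 note: HuP-T3 cell growth inhibition, read out with a cell viability assay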
Description: SANGER: Inhibition of human HuP-T3 cell growth in a cell viability assay.

OAW-42 = system: OAW-42;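 note: growth inhibition of OAW-42 cells, read out with a cell viability assay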
Description: SANGER: Inhibition of human OAW-42 cell growth in a cell viability assay.

HOS = system: HOS;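 note: growth inhibition of human HOS cells, read out with a cell viability assay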
Description: SANGER: Inhibition of human HOS cell growth in a cell viability assay.

Huh-7 = system: Huh-7;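 note: HuH-7 cell growth inhibition, read out with a cell viability assay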
Description: SANGER: Inhibition of human HuH-7 cell growth in a cell viability assay.

AN3-CA = system: AN3-CA;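 note: growth inhibition of human AN3-CA cells measured by a cell viability assay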
Description: SANGER: Inhibition of human AN3-CA cell growth in a cell viability assay.

HSC-2 = system: HSC-2;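 note: growth inhibition of human HSC-2 cells, read out by a cell viability assay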
Description: SANGER: Inhibition of human HSC-2 cell growth in a cell viability assay.

NCI-H1793 = system: NCI-H1793;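 note: cell growth inhibition, read out by a cell viability assay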
Description: SANGER: Inhibition of human NCI-H1793 cell growth in a cell viability assay.

ASPC1 = system: ASPC1;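 note: growth inhibition of AsPC-1 cells, read out with a cell viability assay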
Description: SANGER: Inhibition of human AsPC-1 cell growth in a cell viability assay.

DMS-273 = system: DMS-273
Description: SANGER: Inhibition of human DMS-273 cell growth in a cell viability assay.

MEL-HO = system: MEL-HO
Description: SANGER: Inhibition of human MEL-HO cell growth in a cell viability assay.

NCI-H630 = system: NCI-H630;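 note: growth inhibition of NCI-H630 cells, read out with a cell viability assay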
Description: SANGER: Inhibition of human NCI-H630 cell growth in a cell viability assay.

A-431 = system: A-431;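 note: growth inhibition of A-431 cells, determined with a cell viability read-out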
Description: SANGER: Inhibition of human A431 cell growth in a cell viability assay.

786-0 = system: 786-0
Description: SANGER: Inhibition of human 786-0 cell growth in a cell viability assay.

NCI-H2087 = system: NCI-H2087;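 note: growth inhibition determined with a cell viability readout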
Description: SANGER: Inhibition of human NCI-H2087 cell growth in a cell viability assay.

A2780 = system: A2780;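 note: growth inhibition of A2780 cells, read out with a cell viability assay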
Description: SANGER: Inhibition of human A2780 cell growth in a cell viability assay.

HO-1-N-1 = system: HO-1-N-1;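 note: growth inhibition of human HO-1-N-1 cells, read out with a cell viability assay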
Description: SANGER: Inhibition of human HO-1-N-1 cell growth in a cell viability assay.

BCPAP = system: BCPAP;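 note: growth inhibition of BCPAP cells, read out in a cell viability assay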
Description: SANGER: Inhibition of human BCPAP cell growth in a cell viability assay.

NCI-H358 = system: NCI-H358;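 note: growth inhibition of NCI-H358 human cells, read out with a cell viability assay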
Description: SANGER: Inhibition of human NCI-H358 cell growth in a cell viability assay.

MC-IXC = system: MC-IXC;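 note: growth inhibition of MC-IXC cells, read out with a cell viability assay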
Description: SANGER: Inhibition of human MC-IXC cell growth in a cell viability assay.

SN12C = system: SN12C;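 note: growth inhibition of human SN12C cells, measured by a cell viability assay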
Description: SANGER: Inhibition of human SN12C cell growth in a cell viability assay.

NCI-H460 = system: NCI-H460;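 note: cell viability assay scoring growth inhibition of human NCI-H460 cells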
Description: SANGER: Inhibition of human NCI-H460 cell growth in a cell viability assay.

KU-19-19 = system: KU-19-19
Description: SANGER: Inhibition of human KU-19-19 cell growth in a cell viability assay.

SW1710 = system: SW1710;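 note: growth inhibition of SW1710 cells, determined with a cell viability assay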
Description: SANGER: Inhibition of human SW1710 cell growth in a cell viability assay.

MDA-MB-231 = system: MDA-MB-231
Description: SANGER: Inhibition of human MDA-MB-231 cell growth in a cell viability assay.

BEN = system: BEN;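 note: growth inhibition of the BEN cell line, read out with a cell viability assay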
Description: SANGER: Inhibition of human BEN cell growth in a cell viability assay.

23132-87 = system: 23132-87
Description: SANGER: Inhibition of human 23132-87 cell growth in a cell viability assay.

HuP-T4 = system: HuP-T4;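 note: cell viability assay measuring how much HuP-T4 cell growth is inhibited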
Description: SANGER: Inhibition of human HuP-T4 cell growth in a cell viability assay.

YKG-1 = system: YKG-1;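 note: cell growth inhibition, read out with a viability assay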
Description: SANGER: Inhibition of human YKG-1 cell growth in a cell viability assay.

KP-N-YN = system: KP-N-YN;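 note: growth inhibition of KP-N-YN cells, read out with a cell viability assay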
Description: SANGER: Inhibition of human KP-N-YN cell growth in a cell viability assay.

8305C = system: 8305C
Description: SANGER: Inhibition of human 8305C cell growth in a cell viability assay.

NCI-H810 = system: NCI-H810;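 note: IC50 reflects inhibition of cancer cell line growth, read out with a cell viability assay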
Description: SANGER: Inhibition of human NCI-H810 cell growth in a cell viability assay.

HCC1954 = system: HCC1954;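 note: growth inhibition of human HCC1954 cells, read out with a cell viability assay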
Description: SANGER: Inhibition of human HCC1954 cell growth in a cell viability assay.

D-392MG = system: D-392MG
MKN-1 = system: MKN-1;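 note: growth inhibition of human MKN1 cells, read out by a cell viability measurement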
Description: SANGER: Inhibition of human MKN1 cell growth in a cell viability assay.

H4 = system: H4
Description: SANGER: Inhibition of human H4 cell growth in a cell viability assay.

A2058 = system: A2058;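 note: reduction of A2058 cell growth, read out with a viability assay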
Description: SANGER: Inhibition of human A2058 cell growth in a cell viability assay.

SiHa = system: SiHa;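 note: Viability-based readout of growth inhibition in SiHa cells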
Description: SANGER: Inhibition of human SiHa cell growth in a cell viability assay.

HCC 2998 = system: HCC 2998;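 note: growth inhibition of human HCC2998 cells, measured with a cell viability read-out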
Description: SANGER: Inhibition of human HCC2998 cell growth in a cell viability assay.

A-427 = system: A-427;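 note: growth inhibition of human A-427 cells, read out by a cell viability assay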
Description: SANGER: Inhibition of human A427 cell growth in a cell viability assay.

Daoy = system: Daoy;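 note: daoy cell growth inhibition, read out as cell viability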
Description: SANGER: Inhibition of human Daoy cell growth in a cell viability assay.

MDA-MB-361 = system: MDA-MB-361
VM-CUB-1 = system: VM-CUB-1;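 note: cell viability assay measuring growth inhibition of the human VM-CUB-1 cell line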
Description: SANGER: Inhibition of human VM-CUB-1 cell growth in a cell viability assay.

SK-OV-3 = system: SK-OV-3;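 note: growth inhibition of SK-OV-3 human cells, read out with a cell viability assay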
Description: SANGER: Inhibition of human SK-OV-3 cell growth in a cell viability assay.

COLO-792 = system: COLO-792
Description: SANGER: Inhibition of human COLO-792 cell growth in a cell viability assay.

HCC38 = system: HCC38;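 note: cell viability assay on the human HCC38 cell line, with IC50 marking the concentration that inhibits cell growth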
Description: SANGER: Inhibition of human HCC38 cell growth in a cell viability assay.

Calu-3 = system: Calu-3;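 note: growth inhibition of human Calu-3 cells, determined with a cell viability assay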
Description: SANGER: Inhibition of human Calu-3 cell growth in a cell viability assay.

In the case of COc1cc(Nc2c(C#N)cnc3cc(OCCCN4CCN(C)CC4)c(OC)cc23)c(Cl)cc1Cl [BOSUTINIB], the IC50 (HuP-T3) is reported as greater than 2000 nM, the IC50 (OAW-42) is reported as greater than 2000 nM and the IC50 (HOS) is reported as greater than 2000 nM. The IC50 (Huh-7) was greater than 2000 nM, the IC50 (AN3-CA) was greater than 2000 nM and the IC50 (HSC-2) was greater than 2000 nM. It also gave an IC50 (NCI-H1793) greater than 2000 nM, an IC50 (ASPC1) greater than 2000 nM and an IC50 (DMS-273) greater than 2000 nM. The IC50 (MEL-HO) was greater than 2000 nM, the IC50 (NCI-H630) was greater than 2000 nM and the IC50 (A-431) was greater than 2000 nM. The IC50 (786-0) was greater than 2000 nM, the IC50 (NCI-H2087) was greater than 2000 nM and the IC50 (A2780) was greater than 2000 nM. It also gave an IC50 (HO-1-N-1) of 1260 nM, an IC50 (BCPAP) greater than 2000 nM and an IC50 (NCI-H358) greater than 2000 nM. It also gave an IC50 (MC-IXC) greater than 2000 nM, an IC50 (SN12C) greater than 2000 nM and an IC50 (NCI-H460) greater than 2000 nM. For the same compound, the IC50 (KU-19-19) was greater than 2000 nM, the IC50 (SW1710) was greater than 2000 nM and the IC50 (MDA-MB-231) was greater than 2000 nM. The IC50 (BEN) was greater than 2000 nM, the IC50 (23132-87) was greater than 2000 nM and the IC50 (HuP-T4) was greater than 2000 nM. It also gave an IC50 (YKG-1) greater than 2000 nM, an IC50 (KP-N-YN) greater than 2000 nM and an IC50 (8305C) greater than 2000 nM. The IC50 (NCI-H810) was greater than 2000 nM, the IC50 (HCC1954) was greater than 2000 nM and the IC50 (D-392MG) was greater than 2000 nM. For the same compound, the IC50 (MKN-1) was greater than 2000 nM, the IC50 (H4) was 1240 nM and the IC50 (A2058) was greater than 2000 nM. The IC50 (SiHa) was greater than 2000 nM, the IC50 (HCC 2998) was greater than 2000 nM and the IC50 (A-427) was greater than 2000 nM. For the same compound, the IC50 (Daoy) was greater than 2000 nM, the IC50 (MDA-MB-361) was greater than 2000 nM and the IC50 (VM-CUB-1) was greater than 2000 nM. For the same compound, the IC50 (SK-OV-3) was greater than 2000 nM, the IC50 (COLO-792) was greater than 2000 nM and the IC50 (HCC38) was greater than 2000 nM. The IC50 (Calu-3) was greater than 2000 nM.

Work on C[C@]12O[C@H](C[C@]1(O)CO)n1c3ccccc3c3c4c(c5c6ccccc6n2c5c31)CNC4=O [LESTAURTINIB] yielded an IC50 (HuP-T3) of 966 nM, an IC50 (OAW-42) of 349 nM and an IC50 (HOS) of 232 nM. It also gave an IC50 (Huh-7) greater than 2000 nM, an IC50 (AN3-CA) of 1250 nM and an IC50 (HSC-2) of 1500 nM. It also gave an IC50 (NCI-H1793) greater than 2000 nM, an IC50 (ASPC1) of 1620 nM and an IC50 (DMS-273) greater than 2000 nM. For the same compound, the IC50 (MEL-HO) was 120 nM, the IC50 (NCI-H630) was greater than 2000 nM and the IC50 (A-431) was 387 nM. It also gave an IC50 (786-0) of 1560 nM, an IC50 (NCI-H2087) greater than 2000 nM and an IC50 (A2780) of 94 nM. It also gave an IC50 (HO-1-N-1) of 298 nM, an IC50 (BCPAP) of 970 nM and an IC50 (NCI-H358) greater than 2000 nM. It also gave an IC50 (MC-IXC) of 13.5 nM, an IC50 (SN12C) of 398 nM and an IC50 (NCI-H460) of 1170 nM. It also gave an IC50 (KU-19-19) of 1330 nM, an IC50 (SW1710) of 128 nM and an IC50 (MDA-MB-231) of 586 nM. For the same compound, the IC50 (BEN) was greater than 2000 nM, the IC50 (23132-87) was 838 nM and the IC50 (HuP-T4) was 1330 nM. It also gave an IC50 (YKG-1) of 325 nM, an IC50 (KP-N-YN) of 1960 nM and an IC50 (8305C) greater than 2000 nM. For the same compound, the IC50 (NCI-H810) was 995 nM, the IC50 (HCC1954) was greater than 2000 nM and the IC50 (D-392MG) was 593 nM. The IC50 (MKN-1) was greater than 2000 nM, the IC50 (H4) was 13.5 nM and the IC50 (A2058) was 245 nM. For the same compound, the IC50 (SiHa) was greater than 2000 nM, the IC50 (HCC 2998) was 554 nM and the IC50 (A-427) was 23.4 nM. The IC50 (Daoy) was 1040 nM, the IC50 (MDA-MB-361) was 1250 nM and the IC50 (VM-CUB-1) was 651 nM. For the same compound, the IC50 (SK-OV-3) was 224 nM, the IC50 (COLO-792) was greater than 2000 nM and the IC50 (HCC38) was greater than 2000 nM. It also gave an IC50 (Calu-3) greater than 2000 nM.

In the case of C[C@]1(c2nc3c(C(N)=O)cccc3[nH]2)CCCN1 [VELIPARIB], the IC50 (HuP-T3) is reported as greater than 5000 nM, the IC50 (OAW-42) is reported as greater than 5000 nM and the IC50 (HOS) is reported as greater than 5000 nM. The IC50 (Huh-7) was greater than 5000 nM, the IC50 (AN3-CA) was greater than 5000 nM and the IC50 (HSC-2) was greater than 5000 nM. It also gave an IC50 (NCI-H1793) greater than 5000 nM, an IC50 (ASPC1) greater than 5000 nM and an IC50 (DMS-273) greater than 5000 nM. The IC50 (MEL-HO) was greater than 5000 nM, the IC50 (NCI-H630) was greater than 5000 nM and the IC50 (A-431) was greater than 5000 nM. It also gave an IC50 (786-0) greater than 5000 nM, an IC50 (NCI-H2087) greater than 5000 nM and an IC50 (A2780) greater than 5000 nM. It also gave an IC50 (HO-1-N-1) greater than 5000 nM, an IC50 (BCPAP) greater than 5000 nM and an IC50 (NCI-H358) greater than 5000 nM. For the same compound, the IC50 (MC-IXC) was greater than 5000 nM, the IC50 (SN12C) was greater than 5000 nM and the IC50 (NCI-H460) was greater than 5000 nM. It also gave an IC50 (KU-19-19) greater than 5000 nM, an IC50 (SW1710) greater than 5000 nM and an IC50 (MDA-MB-231) greater than 5000 nM. It also gave an IC50 (BEN) greater than 5000 nM, an IC50 (23132-87) greater than 5000 nM and an IC50 (HuP-T4) greater than 5000 nM. The IC50 (YKG-1) was greater than 5000 nM, the IC50 (KP-N-YN) was greater than 5000 nM and the IC50 (8305C) was greater than 5000 nM. For the same compound, the IC50 (NCI-H810) was greater than 5000 nM, the IC50 (HCC1954) was greater than 5000 nM and the IC50 (D-392MG) was greater than 5000 nM. The IC50 (MKN-1) was greater than 5000 nM, the IC50 (H4) was greater than 5000 nM and the IC50 (A2058) was greater than 5000 nM. The IC50 (SiHa) was greater than 5000 nM, the IC50 (HCC 2998) was greater than 5000 nM and the IC50 (A-427) was greater than 5000 nM. For the same compound, the IC50 (Daoy) was greater than 5000 nM, the IC50 (MDA-MB-361) was greater than 5000 nM and the IC50 (VM-CUB-1) was greater than 5000 nM. The IC50 (SK-OV-3) was greater than 5000 nM, the IC50 (COLO-792) was greater than 5000 nM and the IC50 (HCC38) was greater than 5000 nM. It also gave an IC50 (Calu-3) greater than 5000 nM.

With CC[C@]1(O)C[C@@H]2CN(CCc3c([nH]c4ccccc34)[C@@](C(=O)OC)(c3cc4c(cc3OC)N(C)[C@H]3[C@@](O)(C(=O)OC)[C@H](OC(C)=O)[C@]5(CC)C=CCN6CC[C@]43[C@@H]65)C2)C1 [VINBLASTINE] the IC50 (HuP-T3) was 18 nM, the IC50 (OAW-42) was greater than 100 nM and the IC50 (HOS) was 6.25 nM. For the same compound, the IC50 (Huh-7) was 87.7 nM, the IC50 (AN3-CA) was 9.76 nM and the IC50 (HSC-2) was 20.2 nM. For the same compound, the IC50 (NCI-H1793) was 29.6 nM, the IC50 (ASPC1) was 13.2 nM and the IC50 (DMS-273) was 3.4 nM. The IC50 (MEL-HO) was 53.9 nM, the IC50 (NCI-H630) was greater than 100 nM and the IC50 (A-431) was greater than 100 nM. The IC50 (786-0) was 15.6 nM, the IC50 (NCI-H2087) was 30.5 nM and the IC50 (A2780) was 4.61 nM. It also gave an IC50 (HO-1-N-1) of 1.76 nM, an IC50 (BCPAP) of 2.33 nM and an IC50 (NCI-H358) of 37 nM. It also gave an IC50 (MC-IXC) of 2.99 nM, an IC50 (SN12C) of 16.1 nM and an IC50 (NCI-H460) of 46.4 nM. For the same compound, the IC50 (KU-19-19) was 43.7 nM, the IC50 (SW1710) was 5.61 nM and the IC50 (MDA-MB-231) was 44.6 nM. The IC50 (BEN) was 81.2 nM, the IC50 (23132-87) was 20.6 nM and the IC50 (HuP-T4) was 43.2 nM. For the same compound, the IC50 (YKG-1) was 5.53 nM, the IC50 (KP-N-YN) was 46.4 nM and the IC50 (8305C) was 3.67 nM. The IC50 (NCI-H810) was 68.7 nM, the IC50 (HCC1954) was greater than 100 nM and the IC50 (D-392MG) was 18.9 nM. The IC50 (MKN-1) was 10.1 nM, the IC50 (H4) was 5.84 nM and the IC50 (A2058) was 1.22 nM. It also gave an IC50 (SiHa) greater than 100 nM, an IC50 (HCC 2998) of 19.8 nM and an IC50 (A-427) of 12.5 nM. The IC50 (Daoy) was 3.1 nM, the IC50 (MDA-MB-361) was 1.66 nM and the IC50 (VM-CUB-1) was 4.28 nM. It also gave an IC50 (SK-OV-3) greater than 100 nM, an IC50 (COLO-792) of 25.6 nM and an IC50 (HCC38) of 58.4 nM. It also gave an IC50 (Calu-3) greater than 100 nM.
